Source: US12097194B2, “Combination therapy for treating blood cancer” (SIGNALCHEM LIFESCIENCES CORPORATION, priority 2018, dated 2024)
Like-named read-outs stand apart in the source and are kept apart here.

Legend:
Molm-13 AML cell line = test: Compound dose response assay (trypan blue % viability) and CompuSyn combination analysis, Molm-13; assay type: cell-based; conditions: Homo sapiens
Experimental: (§1) The AML cell lines Molm-13 and MV4-11 were obtained from DSMZ. The cells were maintained in culture using RPMI-1640 containing 10% heat-inactivated serum at 37° C./5% CO2. For all experiments, unless otherwise specified, the above-mentioned culture conditions were used. The BCL-2 inhibitors venetoclax (ABT-199) and navitoclax (ABT-263) were purchased from Chemietek. The Axl inhibitor 3-(5-(cyclopropylmethyl)-1,3,4-oxadiazol-2-yl)-5-(1-(piperidin-4-yl)-1H-pyrazol-4-yl)pyridin-2-amine (Compound A) was synthesized according to the method disclosed in WO2015/081257.
(§2) The AML cells Molm-13 and MV4-11 were plated at 5×10^4 cells/mL in 24-well plates and dosed the following day using single or combination of drugs with vehicle (DMSO) only controls. Each cell treatment was conducted in duplicates. Cells were collected 48- or 72-hours post drug treatment, mixed 1:1 with trypan blue and counted manually using a hemocytometer. A total of 100 cells (at the least) were counted for each sample. The % viability was calculated and normalized to vehicle treated controls. Individual IC50 of each compound was determined in each cell line using increasing doses. Four doses less than the IC50 for each compound for each cell line were chosen to conduct the combination studies. The IC50 values were calculated using Prism Version 5.01. CompuSyn software Version 1.0 was used to calculate the combination indices.
(§3) The fraction affected (FA) at the same dose was much higher for the compound combination groups compared to that of the single compound groups.

MV4-11 AML cell line = test: Compound dose response assay (trypan blue % viability) and CompuSyn combination analysis, MV4-11; assay type: cell-based; conditions: Homo sapiens
Experimental: as §1, §2, §3

[1] = test system: CD34+ stem and progenitor cells from AML patients; test: Patient-derived xenograft (PDX) model of AML in NRG-3GS mice; assay type: in vivo; conditions: 50 mg/kg QD each agent, oral gavage, 4 weeks, compared to healthy non-leukemic mice
Text: The relative effectiveness of Compound A and the combination of Compound A and ABT-199 in targeting primitive leukemic cells and/or to prevent leukemia development were investigated in in vivo assays. First, highly purified CD34+ stem and progenitor cells from two different AML patients (with high Axl and GAS6 expression; cohort 1=AML patient #2, cohort 2=AML patient #14, as determined in Example 2) were transduced with a GFP/Luciferase lentivirus reporter to allow non-invasive in vivo imaging (IVIS) of the mice to track leukemia development. […]
Leukemic cell burden was also measured in peripheral blood (PB), bone marrow (BM) and spleens in one set of euthanized mice (one mouse from each treatment group in both cohorts, respectively) and immunophenotypes of engrafted cells determined with fluorescently-labelled CD45, CD34, CD38, CD33, CD15, CD14, CD19 surface markers. Splenomegaly was assessed by spleen sizes and weights (FIG. 5).
All remaining mice were monitored for symptoms of disease development (weight loss, lethargy etc.) and survival between treatment groups compared. […] P-values were calculated with the Log-rank (Mantel-Cox) test and significant differences between groups are indicated.

MV4-11 cells = test: MV4-11 cell line xenograft model of AML in NRG mice; assay type: in vivo; conditions: MV4-11 xenograft, 50 mg/kg QD each agent, oral; for bioluminescent signal (IVIS) / leukemia progression: 3 weeks (15 doses)
Experimental: To investigate the safety and the effectiveness of Compound A monotherapy and combination therapy with ABT-199 for eliminating human leukemic cells in animals, a cell-line based xenograft mouse study was performed. First, MV4-11 cells were transduced with a GFP/Luciferase lentivirus vector to allow sorting/analyzing of human leukemic cells in mice and the non-invasive in vivo imaging system (IVIS) of the mice to track leukemia development and leukemia forming sites. Then, 2.5 million of GFP positive MV4-11 cells per mouse were injected intravenously into irradiated male NRG mice. Two weeks after injection, IVIS imaging was performed to confirm leukemia formation and consistent levels of leukemia burden in each mouse. Following that, mice received 3 weeks (total of 15 doses) of oral treatment with vehicle (control), 50 mg/kg Compound A alone QD, 50 mg/kg ABT-199 alone QD or a combination of Compound A (50 mg/kg, QD) and ABT-199 (50 mg/kg, QD).
After the treatment period, another round of IVIS imaging was performed to evaluate the effectiveness of the treatments. FIG. 8A and FIG. 8B show the bioluminescent imaging of representative mice before treatment and after oral gavages with indicated treatments, respectively. Darkened areas represent sites of observed bioluminescence resultant from presence of GFP/Luciferase leukemic cells. For comparison, healthy mice with no transduced leukemic cells (“no cells”) are also shown.
A representative group of mice was then sacrificed to compare engraftment of leukemic cells in peripheral blood (PB), bone marrow (BM), spleens and livers of each treatment group. Infiltration of leukemic cells into hematopoietic organs as spleen and liver was assessed by weights and histopathologic analysis. FIGS. 9A and 9B show spleen sizes and weights, and Haemotoxylin and Eosin staining of representative mice from each treatment group as indicated, respectively.
The remaining mice were monitored for survival between treatment groups. […] Median survival for each treatment group is indicated in days in brackets. P-values were calculated with the Log-rank (Mantel-Cox) test and significant differences between groups are indicated.

[2] = single agent, % viability normalized to vehicle, 48 or 72 hours post treatment, read-out: IC50 (nM), single agent
[3] = BCL-2 inhibitor + Cmpd A, read-out: IC50 (nM) of BCL-2 inhibitor in the presence of Compound A

Row | SMILES | IC50 (Molm-13 AML cell line; [2]) | IC50 (MV4-11 AML cell line; [2]) | splenomegaly (spleen sizes and weights) [1] | leukemia propagating activity in vivo (MV4-11 cells; 3 weeks) | spleen enlargement (spleen sizes and weights) (MV4-11 cells; 3 weeks) | bioluminescent signal (IVIS) / leukemia progression (MV4-11 cells) | IC50 (Molm-13 AML cell line; [3]) | IC50 (MV4-11 AML cell line; [3])
1 | Nc1ncc(-c2cnn(C3CCNCC3)c2)cc1-c1nnc(CC2CC2)o1 [Compound A, 3-(5-(cyclopropylmethyl)-1,3,4-oxadiazol-2-yl)-5-(1-(piperidin-4-yl)-1H-pyrazol-4-yl)pyridin-2-amine] | 430 nM | 421 nM | significantly enlarged | can reduce leukemia propagating activity in vivo | no sign of spleen enlargement | dramatically lower intensity bioluminescent signals compared to vehicle and ABT-199 treated mice |  | 
2 | CC1(C)CCC(CN2CCN(c3ccc(C(=O)NS(=O)(=O)c4ccc(NCC5CCOCC5)c([N+](=O)[O-])c4)c(Oc4cnc5[nH]ccc5c4)c3)CC2)=C(c2ccc(Cl)cc2)C1 [ABT-199, Venetoclax] | 55.9 nM | 20.5 nM | significantly enlarged |  | increased size and weight in the spleens | aggressive leukemia progression | 9.9 nM | 0.99 nM
3 | CC1(C)CCC(c2ccc(Cl)cc2)=C(CN2CCN(c3ccc(C(=O)NS(=O)(=O)c4ccc(N[C@H](CCN5CCOCC5)CSc5ccccc5)c(S(=O)(=O)C(F)(F)F)c4)cc3)CC2)C1 [ABT-263, Navitoclax] | 358 nM | 93.5 nM |  |  |  |  | 116 nM | 36.8 nM
